In the METLIN SMRT retention time set (Domingo-Almenara et al. 2019):

Test: gradient 5% acetonitrile 3 min, to 50% in 2 min, to 85% in 15 min, held 3 min, 100 µL/min
Settings: column: Zorbax Extend-C18 2.1 x 50 mm; eluents: water / acetonitrile, 0.1% formic acid
Summary of the method: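 Data were gathered over 3 months by HPLC coupled to a quadrupole time-of-flight mass spectrometer, operated in positive and negative ionization mode. Mixtures of ~100 pure standards ran on a Zorbax Extend-C18 column (2.1 × 50 mm, 1.8 μm) at 100 μL/min, with water and acetonitrile each containing 0.1% formic acid and dead and dwell volumes of 40 μL and 900 μL. Retention time was read from adduct peaks picked by computer and checked manually.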

| SMILES | RP-LC retention time |
| --- | --- |
| CCn1cc(-c2nc(C)c(C(=O)N3CCCCCC3)s2)c2cccnc21 | 942 s |
| CCCCCCCCN[C@H](C)[C@@H](O)c1ccc(SC(C)C)cc1 | 1030 s |
| Cc1[nH]c2ccccc2c1C(=O)C(=O)NCc1ccccn1 | 605 s |
| Cc1ccc(-c2nc(Cn3cccc3C(=O)NCc3cccs3)no2)cc1 | 1040 s |
| O=C(NC1CCSC1=O)c1ccc(-n2cccn2)nn1 (stereo not given) | 657 s |
| CCOC(=O)C(C(=O)Nc1ccccn1)C1CCCCC1 (stereo not given) | 908 s |
| CCN1c2ccccc2C(=O)NC12CCN(C(=O)NCc1ccc(C)cc1)CC2 | 796 s |
| CCc1ccc2oc(C(=O)NCC(c3ccccc3)N(C)C)cc(=O)c2c1 (stereo not given) | 642 s |
| CCc1cc2c(cc(C(=O)NCc3cccs3)n2C)s1 | 1010 s |
| Cc1ccc(C)c(S(=O)(=O)N2CCC3(CC2)NCCCN=C3NC2CCCCC2)c1 | 648 s |
| CC(C)N1CCN(c2ccc3nnc(C4CCC4)n3n2)CC1 | 548 s |
| O=C(NCc1cccc(F)c1)C1CCCN(c2cnc3nccnc3c2)C1 (stereo not given) | 702 s |
| Cc1noc(-c2ccnc(-n3cnc(C(=O)NCc4ccccc4)c3)c2)n1 | 806 s |
| O=C(NCc1ccccc1F)C1CCN(c2nnc3ccc(C(F)(F)F)cn23)CC1 | 764 s |
| Cc1nn(-c2ccc(Cl)cc2)c(C)c1S(=O)(=O)N1CCC(C(=O)N2CCCC2)CC1 | 868 s |
| Cc1cnc(CC2CCN(C(=O)C(C)C)C2)n1C1CC1 (stereo not given) | 557 s |
| O=C(Nc1ccc2c(c1)OCCO2)N1CCC(n2c(-c3ccco3)nc3cccnc32)C1 (stereo not given) | 705 s |
| Cc1nc2c([nH]1)CCN(C(=O)c1ccc(NC(=O)c3ccccc3-c3ccccc3)cc1)c1ccccc1-2 | 795 s |
| COc1ccc2c(c1)C1(CCN(C(=O)COc3ccc(Cl)cc3)C1)C(=O)N2C (stereo not given) | 878 s |
| COc1cc(Nc2c(C(=O)N3CCCC3)cnc3nc(C)ccc23)cc(OC)c1 | 616 s |
| CCc1sc(NC(=O)CCS(=O)(=O)Cc2ccccc2)nc1-c1ccccc1 | 948 s |
| Cc1ccc(-c2cc3c(=O)n(Cc4noc(CN5CCN(C(C)C)CC5)n4)ccn3n2)cc1 | 665 s |
| CCN1CCC(N(Cc2ccc3c(c2)OCO3)C(=O)Nc2cc(C)ccc2OC)CC1 | 706 s |

| SMILES | RP-LC retention time |
| --- | --- |
| CCOc1ccc(OCC)c(NC(=O)CN2C(=O)C(C)(C)c3ccccc32)c1 | 1090 s |
| COc1ccc(NC(=O)Cn2cccc2-c2nnc(-c3ccccc3)o2)cc1OC | 850 s |
| CSc1ccc(CCNC(=O)C2CCCN(C(=O)Cc3cccc4ccccc34)C2)cc1 (stereo not given) | 971 s |
| COc1cccc(NC(=O)Cn2c(C(C)C)nc3c(c2=O)CN(Cc2ccccc2)CC3)c1 | 687 s |
| O=C(Nc1ccc2ncnc(N3CCCCC3)c2c1)c1cccs1 | 670 s |
| COc1ccc(NC2=NS(=O)(=O)C(c3ccccc3)=C2C)c(OC)c1 | 910 s |
| Cc1cc(N2CCN(C(=O)CCc3ccccc3)CC2)nc2nnc(C)n12 | 616 s |
| CC(CCNC(=O)CN1C(=O)C2CCCCN2c2ccc(C(=O)N3CCCC3)cc21)N1CCCC1 (stereo not given) | 614 s |
| O=C(c1cn(-c2cc(Nc3ccccc3)ncn2)cn1)N1CCN(c2ncccn2)CC1 | 749 s |
| CN1CCCCCCN(C(=O)c2cccs2)[C@H]2CCC[C@H]2C1=O | 826 s |
| COc1cc(NC(=O)CC2=C3CCCCC3NC2=O)cc(OC)c1 (stereo not given) | 706 s |
| N#Cc1cccc(CN2CCC3(CCC3O)CC2)c1 (stereo not given) | 565 s |
| CC1CC(=O)c2cnc(N3CCN(C)CC3)nc2C1 (stereo not given) | 564 s |
| O=C(NCc1cccc(F)c1)c1ccc(-c2ccsc2)nc1 | 871 s |
| Cc1oc(-c2ccc(C(=O)N3CCN(C)CC3)cc2)nc1CN1CCc2ccccc21 | 675 s |
| Clc1cccc(Cc2nc(-c3ccc4nncn4c3)no2)c1 | 827 s |
| Cc1ccccc1NC(=O)C(=O)c1ccc[nH]1 | 862 s |
| CCn1cnc(S(=O)(=O)N2CCC(C(=O)Nc3cc(OC)ccc3OC)CC2)c1 | 728 s |
| COc1ccc(Cc2nc(-c3cccc(-c4ccn[nH]4)c3)no2)cc1Cl | 963 s |
| Cc1nc(-c2ccc3c(c2)CCN3C(=O)COc2ccc(Cl)cc2)no1 | 976 s |
| CC(C)c1cc(C(=O)NC2CCCCCC2)nc2ccnn12 | 1170 s |
| Cc1ccc(Cl)cc1NC(=O)C1CCN(S(C)(=O)=O)c2ccccc2O1 (stereo not given) | 954 s |
| COCc1cn(C2CN(C(=O)c3ccc(OC)cc3OC)C2)nn1 | 622 s |

| SMILES | RP-LC retention time |
| --- | --- |
| COc1ccccc1-c1nnc(-c2ccc(Cl)c(S(=O)(=O)N3CCCCCC3)c2)o1 | 1150 s |
| O=S(=O)(c1ccc(-c2nnc(C3CC3)o2)o1)N1CCN(c2ccccn2)CC1 | 632 s |
| CC(=O)N1c2ccc(S(=O)(=O)N3CCCC3)cc2CC1C(=O)NCCC(C)C (stereo not given) | 806 s |
| CC(CCNc1ccc(-c2nc(-c3cccc(F)c3)no2)cn1)N1CCCCCC1 (stereo not given) | 782 s |
| Fc1ccccc1-c1noc(-c2nc(C3CC3)no2)n1 | 1050 s |
| O=S(=O)(c1ccc2c(c1)OCCO2)N1CCC[C@H]1c1nc(-c2ccc(F)cc2)n[nH]1 | 799 s |
| c1ccc(-c2nnc3nc(N4CCCCC4)nc(N4CCCCC4)n23)cc1 | 1260 s |
| CC(C)CNC(=O)C1CCN(c2nc3ccsc3c(=O)n2Cc2ccc(F)cc2)CC1 | 884 s |
| CNC(=O)C1CN(C(=O)c2ccc(OC)cc2)CC12CCCC2 (stereo not given) | 570 s |
| COc1ccc(CCc2nc(C3CC(=O)N(c4ccc(F)c(Cl)c4)C3)no2)cc1 (stereo not given) | 1040 s |
| COc1ccccc1NC(=O)N1CCN(CCn2c(C(F)(F)F)nc3cccnc32)CC1 | 630 s |
| CCN(CC)CCNC(=O)C1CCN(c2nccnc2Sc2ccccc2)CC1 | 657 s |
| COc1ccccc1CNC(=O)CN1C(=O)C2CCCCN2c2ccc(S(=O)(=O)N(C)C)cc21 (stereo not given) | 885 s |
| Cn1nc(-c2nnc(-c3ccc(F)cc3)o2)c2c1CCN(S(=O)(=O)c1cc(F)ccc1F)C2 | 958 s |
| Nc1cccc(-c2ccc(N3CCOCC3)nn2)c1 | 546 s |
| COc1ccc(-n2ccnc(NC(=O)Nc3ccc(F)c(Cl)c3)c2=O)cc1 | 1020 s |
| Cc1cc(N2CCN(C(=O)c3cccc(C(F)(F)F)c3)CC2)nc2nncn12 | 627 s |
| Cc1ccc(C)c(NC(=O)N2CCCC(C)(C(=O)NCc3ccccc3C)C2)c1 (stereo not given) | 1020 s |
| O=C(Nc1nccs1)C1CCN(C(=O)C2CC(=O)N(c3ccccc3)C2)CC1 (stereo not given) | 658 s |
| COc1ccc(-c2noc(C3CCCN3C(=O)COc3ccc(Cl)cc3)n2)cc1 (stereo not given) | 1030 s |
| CCN1C(=O)c2cc(S(=O)(=O)Nc3cc(F)ccc3C)ccc2Oc2cccnc21 | 1030 s |
| CCn1cc(C(=O)Nc2ccc(Br)cc2)c2nn(-c3ccccc3)c(=O)c-2c1 | 1090 s |
| CCc1cccc(-n2nnc(C(=O)NCCOC)c2-c2ccncc2)c1 | 715 s |

| SMILES | RP-LC retention time |
| --- | --- |
| COc1ccccc1NC(=O)C1CCCN1S(=O)(=O)c1cc2c(cc1C)NC(=O)C(C)O2 (stereo not given) | 801 s |
| CCS(=O)(=O)N1CCc2ccc(NC(=O)c3cccs3)cc2C1 | 747 s |
| COCc1nc(N2CCN(c3ccc(OC)cc3)CC2)ncc1C(=O)O | 666 s |
| CC1Oc2ccccc2OC1C(=O)Nc1sc2c(c1C#N)CCCC2 (stereo not given) | 1120 s |
| O=C(NCc1ccco1)C1CCN(c2nnc(-c3ccccc3)o2)CC1 | 718 s |
| Cc1ccccc1CNC(=O)c1c(C)oc2c1C1=NCCN1C=N2 | 621 s |
| CCC1Oc2ccc(S(=O)(=O)N3CCC(C(=O)Nc4ccc(C)c(Cl)c4)CC3)cc2NC1=O (stereo not given) | 1020 s |
| O=C(CSc1nc2ccccc2o1)NCCn1nc(-c2cccs2)ccc1=O | 718 s |
| Cc1cc(OCC(=O)NCc2ccc3c(c2)OCO3)nc(N2CCCC(C)C2)n1 (stereo not given) | 671 s |
| Cc1cc(C)cc(C(=O)N2CCc3nc[nH]c3C2)c1 | 584 s |
| CCN1C(=O)c2cccnc2Sc2cc(NC(=O)C3(c4ccccc4)CC3)ccc21 | 937 s |
| CCOc1cc(C(=O)N2CCCC(C)(C(=O)NCc3ccc(F)cc3)C2)cc(OCC)c1OCC (stereo not given) | 978 s |
| Cn1cccc1C(=O)N1CC(c2nc(CCOC3CCCC3)no2)C1 | 845 s |
| Cc1cc(C)n(-c2ccnc(N3CCC(C(=O)NCc4ccccn4)CC3)n2)n1 | 610 s |
| NC(=O)c1ccc2c(c1)CCCN2C(=O)c1cccc(Cl)c1 | 724 s |
| Cc1cc(-c2nnc(-c3ccco3)o2)c(C)n1CC(=O)Nc1cccc(F)c1 | 881 s |
| O=C(c1ccoc1)N1CCC(N2CC(F)(F)C[C@H]2CO)CC1 | 539 s |
| O=C(Nc1ccc(Cl)cc1C(F)(F)F)N1CCC(n2cnnc2C2CC2)C1 (stereo not given) | 704 s |
| COC(=O)C1=CN(c2ccc(OC)c(Cl)c2)c2ccc(F)cc2S1(=O)=O | 886 s |
| Cc1nn(-c2ccccc2)c(-n2cccc2)c1CNC(=O)NCc1ccc(F)cc1 | 909 s |
| CCc1noc(NC(C)=O)c1-c1ccc(OC)c(S(=O)(=O)N2CCC3(CC2)OCCO3)c1 | 714 s |
